One compound from US5143911A, “Antibiotic C-3 di-hydroxyphenyl substituted cephalosporin compounds, compositions and method of use thereof” (Bristol-Myers Squibb Company, priority 1990, dated 1992) can be followed below.

Structures are written as SMILES. Converted amounts (≈) assume the structure as drawn.

By MIC is commonly meant the least concentration at which growth counts as inhibited.

Assay [1] deals with Penicillin (PC)sensitive S. (5 strains). The assay is described as follows: MIC, two-fold serial agar dilution, Mueller-Hinton agar (geometric mean, group Gp-Ia). Particulars: Staphylococcus aureus. It is filed as cell-based, S. aureus. As for the experimental part: (§1) For a primary evaluation of some representative compounds of this invention, minimum inhibitory concentrations (MIC's) were determined against 32 strains of test organisms by two-fold serial agar dilution method in Mueller-Hinton agar.
Gp-Ia: Penicillin (PC)sensitive S.
A general note: In agar dilution, organisms are placed on agar that contains the substance at set levels.

For assay [2], the system named is Cephalothin (CET)sensitive E. coli(2), Kl. pneumoniae(1) and Pr. mirabilis(2). The assay is described as follows: MIC, two-fold serial agar dilution, Mueller-Hinton agar (geometric mean, group Gn-Ia). Particulars: 5 strains. It is filed as cell-based. How it is done: as §1
GnIa: Cephalothin (CET)sensitive E. coli(2)*, Kl. pneumoniae(1) and Pr.

Assay [3] has as its system CETresistant E. coli(3), and Kl. pneumoniae(2). The assay is described as follows: MIC, two-fold serial agar dilution, Mueller-Hinton agar (geometric mean, group Gn-Ib). It is filed as cell-based. Particulars: Escherichia coli, read-out: Geometric Mean of MIC, Gn-Ib. How it is done:
as §1
GnIb: CETresistant E. coli(3), and Kl. pneumoniae(2)

The test system of assay [4] is M. morganii(1), Ent. cloacae(2), and Ser. marcescens(2). The assay is described as follows: MIC, two-fold serial agar dilution, Mueller-Hinton agar (geometric mean, group Gn-II). The class given is cell-based. Particulars: 5 strains. How it is done:
as §1
GnII: M. morganii(1), Ent. cloacae(2), and Ser. marcescens(2)

A further assay deals with S. epidermidis 11-1168. The class given is cell-based. Particulars: Staphylococcus epidermidis, 111168, pH 7.2, 32° C. 18 hr, 10^6 cells/ml.
The test system of the next assay is E. faecium A24817. It is filed as cell-based. Particulars: Enterococcus faecium, pH 7.2, 32° C. 18 hr, 10^6 cells/ml.
The subject of the next assay is P. cepacia A21213. It is filed as cell-based. Particulars: Burkholderia cepacia, pH 7.2, 32° C. 18 hr, 10^6 cells/ml.
The test system of the next assay is C. difficile A 21675. The assay is described as follows: In vitro activity against anaerobes (MIC). It is filed as cell-based. Particulars: Clostridioides difficile, A21675, Gp, Clindamycin-resistant.
In a further assay the test system is P. acnes A 21933. The assay is described as follows: In vitro activity against anaerobes (MIC). It is filed as cell-based. Particulars: Cutibacterium acnes, A21933, Gp.
The test system of another assay is S. aureus Smith. The assay is described as follows: MIC against the infecting organism (Table 2). Particulars: Staphylococcus aureus.
For the next assay, the system named is E. coli Juhl. The assay is described as follows: MIC against the infecting organism (Table 2). Particulars: Escherichia coli.
The next assay has as its system S. epidermidis 11-1230. Particulars: Staphylococcus epidermidis, 111230, 18 h, pH 7.2.
A further assay relates to M. luteus 1001. Particulars: Micrococcus luteus, 1001, 18 h, pH 7.2.
A further assay deals with B. subtilis PCI 219. Particulars: Bacillus subtilis, PCI219, 18 h, pH 7.2.
A further assay relates to K. pneumoniae PCI 602. Particulars: Klebsiella pneumoniae, PCI602, 18 h, pH 7.2.
Another assay has as its system M. morgani 1510. Particulars: 18 h, pH 7.2.
The subject of the next assay is M. morgani 1510/9. Particulars: 18 h, pH 7.2.
In the next assay the test system is P. rettgeri IPM-14. Particulars: Providencia rettgeri, IPM14, 18 h, pH 7.2.
In a further assay the test system is S. marcescens IPM-16. Particulars: Serratia marcescens, IPM16, 18 h, pH 7.2.
The test system of the next assay is P. cepacia No. 651. Particulars: Burkholderia cepacia, NO.651, 18 h, pH 7.2.

In the case of `CO/N=C(\C(=O)NC1C(=O)N2C(C(=O)O)=C(/C=C/COC(=O)c3ccc(O)c(O)c3)CS[C@H]12)c1csc(N)n1` (some centres unmarked) [Ia, 7-[(Z)-2-(2-Aminothiazol-4-yl)-2-methoxyiminoacetamido]-3-[(E)-3-(3,4-dihydroxybenzoyloxy)-1-propen-1-yl]-3-cephem-4-carboxylic acid], the MIC in assay [1] is 1.2 mg/L (≈ 2.08 µM); in assay [2], 0.017 mg/L (≈ 0.0295 µM); in [3], 0.029 mg/L (≈ 0.0504 µM); in assay [4], 0.46 mg/L (≈ 0.799 µM); in the assay with S. epidermidis 11-1168, 3.1 mg/L (≈ 5.39 µM); against E. faecium A24817, more than 100 mg/L. Besides, the minimal inhibitory concentration (MIC) in the assay on P. cepacia A21213 is more than 100 mg/L; in the assay with C. difficile A 21675 it was 12.5 mg/L (≈ 21.7 µM); in the assay with P. acnes A 21933 it was 0.4 mg/L (≈ 0.695 µM); against S. aureus Smith it was 1.6 mg/L (≈ 2.78 µM); against E. coli Juhl it was 0.1 mg/L (≈ 0.174 µM); against S. epidermidis 11-1230, 3.1 mg/L (≈ 5.39 µM). Further, the MIC in the assay on M. luteus 1001 was 0.1 mg/L (≈ 0.174 µM); against B. subtilis PCI 219 it was 0.2 mg/L (≈ 0.347 µM); in the assay on K. pneumoniae PCI 602, less than 0.0063 mg/L; in the assay with M. morgani 1510, 3.1 mg/L (≈ 5.39 µM); in the assay on M. morgani 1510/9, 0.05 mg/L (≈ 0.0869 µM); against P. rettgeri IPM-14, 0.05 mg/L (≈ 0.0869 µM). Moreover, the minimal inhibitory concentration (MIC) was more than 100 mg/L in the assay on S. marcescens IPM-16 and 12.5 mg/L (≈ 21.7 µM) in the assay on P. cepacia No. 651.
